# According to ChEMBL document CHEMBL1201862, “PubChem BioAssay data set” (2004):
#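 48-hour exposure; five concentrations; linearly interpolated endpoints. The concentration for 50% growth inhibition is given as GI50.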 The source made the active and inactive calls. Cut-off read from the data, not from the text of the source: active = GI50 up to about 1.1 µM and inactive = higher. Bridge positions count the residues as written; N and C are the ends. Square brackets hold non-standard residues; d marks the D form. Peptide text beside a SMILES is read from it. * marks the point of attachment. Cya = N[CH](CS(=O)(=O)O)C(=O)O; X49 = CC(C)CCCCCCCC(O)CC(=O)*; GABA = NCCCC(=O)O
# Experiments:
# Test in all cases: growth of human tumour cells (NCI), 48 h
# [1] = system: COLO 205
# [2] = system: A549
# [3] = system: NCI-H226
# [4] = system: SK-MEL-2
# [5] = system: MDA-MB-231
# [6] = system: UO-31
# [7] = system: OVCAR-8
# [8] = system: TK-10
# [9] = system: OVCAR-5
# [10] = system: ACHN
# [11] = system: SF-268
# [12] = system: SK-MEL-28
# [13] = system: Malme-3M
# [14] = system: SW-620
# [15] = system: SNB-75
# [16] = system: SF-539
# [17] = system: CAKI-1
# [18] = system: IGROV-1
# [19] = system: PC-3
# [20] = system: CCRF-CEM
Structure (SMILES),GI50 [1],GI50 [2],GI50 [3],GI50 [4],GI50 [5],GI50 [6],GI50 [7],GI50 [8],GI50 [9],GI50 [10],GI50 [11],GI50 [12],GI50 [13],GI50 [14],GI50 [15],GI50 [16],GI50 [17],GI50 [18],GI50 [19],GI50 [20]
Oc1cc2c(cc1C(c1ccc3c(c1)OCO3)N1CCN(C(c3ccc4c(c3)OCO4)c3cc4c(cc3O)OCO4)CC1)OCO2 (stereo not given),31 µM (inactive),34 µM (inactive),16.1 µM (inactive),19.5 µM (inactive),15.7 µM (inactive),12 µM (inactive),14 µM (inactive),20.2 µM (inactive),18.2 µM (inactive),13.7 µM (inactive),18 µM (inactive),2.83 µM (inactive),15.6 µM (inactive),12.7 µM (inactive),3.46 µM (inactive),16.7 µM (inactive),20.5 µM (inactive),16.9 µM (inactive),28.9 µM (inactive),
CN1C(=O)c2c(c3c4ccccc4n(C)c3c3c2c2ccccc2n3C)C1=O,> 100 µM (inactive),> 100 µM (inactive),> 100 µM (inactive),> 100 µM (inactive),> 100 µM (inactive),> 100 µM (inactive),> 100 µM (inactive),> 100 µM (inactive),> 100 µM (inactive),> 100 µM (inactive),,> 100 µM (inactive),> 100 µM (inactive),> 100 µM (inactive),> 100 µM (inactive),> 100 µM (inactive),> 100 µM (inactive),> 100 µM (inactive),> 100 µM (inactive),> 100 µM (inactive)
Cc1nc(O)nc(NNCc2ccc(Cl)cc2)c1C(=O)Nc1ccc(Cl)cc1,> 100 µM (inactive),> 100 µM (inactive),> 100 µM (inactive),> 100 µM (inactive),> 100 µM (inactive),> 100 µM (inactive),> 100 µM (inactive),> 100 µM (inactive),> 100 µM (inactive),,,> 100 µM (inactive),> 100 µM (inactive),> 100 µM (inactive),> 100 µM (inactive),> 100 µM (inactive),> 100 µM (inactive),> 100 µM (inactive),> 100 µM (inactive),> 100 µM (inactive)
CCCCC1C(=O)N(c2ccc(S(=O)(=O)Nc3ccccn3)cc2)N(c2ccc(O)c(C(=O)O)c2)C1=O (stereo not given),> 100 µM (inactive),> 100 µM (inactive),> 100 µM (inactive),> 100 µM (inactive),> 100 µM (inactive),> 100 µM (inactive),> 100 µM (inactive),,> 100 µM (inactive),> 100 µM (inactive),> 100 µM (inactive),> 100 µM (inactive),> 100 µM (inactive),> 100 µM (inactive),> 100 µM (inactive),> 100 µM (inactive),> 100 µM (inactive),> 100 µM (inactive),> 100 µM (inactive),> 100 µM (inactive)
Cc1c(C(=O)O)n2c(C)nnc2c2ccccc12,> 100 µM (inactive),> 100 µM (inactive),> 100 µM (inactive),> 100 µM (inactive),> 100 µM (inactive),61.5 µM (inactive),> 100 µM (inactive),> 100 µM (inactive),> 100 µM (inactive),> 100 µM (inactive),> 100 µM (inactive),> 100 µM (inactive),,> 100 µM (inactive),36 µM (inactive),> 100 µM (inactive),> 100 µM (inactive),> 100 µM (inactive),> 100 µM (inactive),> 100 µM (inactive)
Clc1ccc(Nc2nnc(CCCCCCCCc3nnc(Nc4ccc(Cl)cc4)o3)o2)cc1,39.9 µM (inactive),28.1 µM (inactive),46 µM (inactive),50.8 µM (inactive),44.2 µM (inactive),36.8 µM (inactive),,55.8 µM (inactive),23.7 µM (inactive),38.8 µM (inactive),,48.6 µM (inactive),11 µM (inactive),48.5 µM (inactive),82.2 µM (inactive),,38.3 µM (inactive),8 µM (inactive),38.1 µM (inactive),
Fc1sc2c(c1F)C1CCC2C1 (stereo not given),43.2 µM (inactive),> 100 µM (inactive),> 100 µM (inactive),> 100 µM (inactive),83.2 µM (inactive),54 µM (inactive),> 100 µM (inactive),> 100 µM (inactive),> 100 µM (inactive),> 100 µM (inactive),> 100 µM (inactive),> 100 µM (inactive),> 100 µM (inactive),> 100 µM (inactive),> 100 µM (inactive),> 100 µM (inactive),> 100 µM (inactive),51.2 µM (inactive),75.7 µM (inactive),
CCN(CC)CCNc1ccc([N+](=O)[O-])c2nc3ccccc3c(N)c12,0.162 µM (active),0.385 µM (active),1.35 µM (inactive),0.214 µM (active),0.41 µM (active),0.597 µM (active),0.361 µM (active),0.685 µM (active),0.621 µM (active),0.155 µM (active),0.482 µM (active),0.998 µM (active),,0.208 µM (active),1.17 µM (inactive),0.446 µM (active),1.23 µM (inactive),0.377 µM (active),0.372 µM (active),0.251 µM (active)
Cn1c(-c2ccccc2)cc(-c2ccc3c(c2)OCO3)c1-c1ccsc1,> 100 µM (inactive),> 100 µM (inactive),> 100 µM (inactive),> 100 µM (inactive),> 100 µM (inactive),> 100 µM (inactive),> 100 µM (inactive),> 100 µM (inactive),> 100 µM (inactive),> 100 µM (inactive),> 100 µM (inactive),> 100 µM (inactive),,> 100 µM (inactive),> 100 µM (inactive),> 100 µM (inactive),> 100 µM (inactive),,> 100 µM (inactive),> 100 µM (inactive)
CCN1/C(=C/C#C/C(C)=C\c2sc3ccccc3[n+]2CC)Sc2ccccc21,1.27 µM (inactive),2.92 µM (inactive),0.631 µM (active),2.44 µM (inactive),4.42 µM (inactive),2.03 µM (inactive),2.07 µM (inactive),3.24 µM (inactive),3.44 µM (inactive),1.16 µM (inactive),2.86 µM (inactive),3.35 µM (inactive),1.11 µM (active),0.593 µM (active),1.53 µM (inactive),2.9 µM (inactive),2.39 µM (inactive),1.75 µM (inactive),1.82 µM (inactive),
ClCc1c(-c2ccccc2)nn(-c2ccccc2)c1CCl,5.94 µM (inactive),16.5 µM (inactive),26.5 µM (inactive),13.2 µM (inactive),> 10 µM (inactive),20.1 µM (inactive),14.2 µM (inactive),14.6 µM (inactive),19.4 µM (inactive),,16.6 µM (inactive),15.6 µM (inactive),16.4 µM (inactive),2.03 µM (inactive),4.18 µM (inactive),16.1 µM (inactive),1.83 µM (inactive),6.79 µM (inactive),9.71 µM (inactive),
CCCCCCOc1ccc(C(=O)NOCc2ccccc2)cc1,> 100 µM (inactive),> 100 µM (inactive),> 100 µM (inactive),> 100 µM (inactive),> 100 µM (inactive),> 100 µM (inactive),> 100 µM (inactive),> 100 µM (inactive),> 100 µM (inactive),> 100 µM (inactive),> 100 µM (inactive),> 100 µM (inactive),,> 100 µM (inactive),> 100 µM (inactive),> 100 µM (inactive),> 100 µM (inactive),> 100 µM (inactive),> 100 µM (inactive),90.2 µM (inactive)
CC(C)CCCCCCCC(O)CC(=O)NC(CS(=O)(=O)O)C(=O)NC(CC(C)C)C(=O)NCCCC(=O)NC(Cc1c[nH]cn1)C(=O)NC(C)C(=O)NC1C(=O)NC(C(C)O)C(=O)NC(Cc2c[nH]cn2)C(=O)NC(C)C(=O)NC(C(C)O)C(=O)OC1C (stereo not given) (X49-[Cya]L[GABA]HATTHAT; ester 6-C; configuration not given here),> 25 µM (inactive),> 25 µM (inactive),> 25 µM (inactive),> 25 µM (inactive),> 25 µM (inactive),> 25 µM (inactive),> 25 µM (inactive),> 25 µM (inactive),> 25 µM (inactive),> 25 µM (inactive),,> 25 µM (inactive),> 25 µM (inactive),> 25 µM (inactive),> 25 µM (inactive),> 25 µM (inactive),> 25 µM (inactive),> 25 µM (inactive),> 25 µM (inactive),> 25 µM (inactive)
CC(C)=CCC/C(C)=C/Cc1cc(/C=C/c2cc(O)c(CC=C(C)C)c(O)c2)cc(O)c1O [MAPPAIN],17.3 µM (inactive),4.72 µM (inactive),8.59 µM (inactive),2.77 µM (inactive),11.2 µM (inactive),1.29 µM (inactive),3.6 µM (inactive),3.32 µM (inactive),4.36 µM (inactive),1.48 µM (inactive),2.64 µM (inactive),5.18 µM (inactive),6.38 µM (inactive),3.54 µM (inactive),2.58 µM (inactive),3.79 µM (inactive),5.42 µM (inactive),1.76 µM (inactive),3.36 µM (inactive),
